This is an account of results in patent US12258327B2, “5-membered heteroaryl-containing aminopyridine compounds as EGFR inhibitors” (YUHAN CORPORATION, priority 2021, dated 2025).

Read-outs that look alike come from different tables or passages of the source.

The target of one assay is EGFR L858R/C797S (Homo sapiens, UniProt P00533, C797S/L858R). Put plainly: Biochemical EGFR kinase assay (Lance Ultra TR-FRET), double mutant L858R/C797S. An outline of the steps: (§1)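 Kinase activity is measured by TR-FRET phosphopeptide detection. Compounds span 0.003 μM to 10 μM; the 1 h reaction at room temperature is quenched with EDTA, then labelled antibody (2 nM) is incubated 60 min before reading.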
EGFR L858R/C797S, sequence (P00533 25-1210 C797S/L858R): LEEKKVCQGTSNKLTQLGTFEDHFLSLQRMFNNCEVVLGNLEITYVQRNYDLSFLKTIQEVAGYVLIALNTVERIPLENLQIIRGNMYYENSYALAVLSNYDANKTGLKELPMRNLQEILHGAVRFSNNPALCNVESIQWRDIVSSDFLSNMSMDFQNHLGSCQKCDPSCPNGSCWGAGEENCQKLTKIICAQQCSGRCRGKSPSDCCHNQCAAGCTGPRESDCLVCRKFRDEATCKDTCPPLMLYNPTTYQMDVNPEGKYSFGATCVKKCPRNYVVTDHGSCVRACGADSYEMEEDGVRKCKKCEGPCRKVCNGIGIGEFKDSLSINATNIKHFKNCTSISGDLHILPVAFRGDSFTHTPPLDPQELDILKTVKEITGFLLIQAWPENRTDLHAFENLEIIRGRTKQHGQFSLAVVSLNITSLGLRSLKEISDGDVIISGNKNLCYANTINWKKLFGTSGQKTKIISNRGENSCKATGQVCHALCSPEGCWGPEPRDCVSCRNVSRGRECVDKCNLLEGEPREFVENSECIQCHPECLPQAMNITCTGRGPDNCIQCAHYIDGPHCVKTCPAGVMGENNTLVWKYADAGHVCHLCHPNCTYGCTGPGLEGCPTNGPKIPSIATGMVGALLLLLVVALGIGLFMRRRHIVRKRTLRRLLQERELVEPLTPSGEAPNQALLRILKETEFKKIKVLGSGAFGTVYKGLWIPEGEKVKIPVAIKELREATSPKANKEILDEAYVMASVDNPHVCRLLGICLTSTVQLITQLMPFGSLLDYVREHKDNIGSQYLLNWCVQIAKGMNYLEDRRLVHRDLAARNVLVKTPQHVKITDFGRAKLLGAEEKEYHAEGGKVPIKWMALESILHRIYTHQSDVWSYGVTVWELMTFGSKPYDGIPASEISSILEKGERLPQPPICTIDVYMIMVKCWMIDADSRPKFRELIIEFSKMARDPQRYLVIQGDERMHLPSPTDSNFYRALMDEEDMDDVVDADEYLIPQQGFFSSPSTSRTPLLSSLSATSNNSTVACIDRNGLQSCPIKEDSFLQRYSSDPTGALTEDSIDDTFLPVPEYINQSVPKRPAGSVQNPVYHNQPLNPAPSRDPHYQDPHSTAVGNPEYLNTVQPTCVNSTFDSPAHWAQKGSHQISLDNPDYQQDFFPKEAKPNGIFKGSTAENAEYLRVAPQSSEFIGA
Background: Time-resolved FRET reads energy transfer from a long-lived donor to a nearby acceptor.

The next assay addresses EGFR L858R/T790M/C797S (Homo sapiens, UniProt P00533, C797S/L858R/T790M). The assay can be described thus: Biochemical EGFR kinase assay (Lance Ultra TR-FRET), triple mutant L858R/T790M/C797S. The method in brief:
as §1

The target of a further assay is EGFR del19/T790M/C797S (Homo sapiens, UniProt P00533, C797S/DEL746-750/T790M). The assay can be described thus: Biochemical EGFR kinase assay (Lance Ultra TR-FRET), triple mutant del19/T790M/C797S. The method in brief: as §1
In another assay the target is EGFR del19/C797S (Homo sapiens, UniProt P00533, C797S/DEL746-750). The assay can be described thus: Biochemical EGFR kinase assay (Lance Ultra TR-FRET), double mutant del19/C797S. The method in brief: as §1
EGFR del19/C797S, sequence (P00533 with tags, fused parts or gaps DEL746-750/C797S): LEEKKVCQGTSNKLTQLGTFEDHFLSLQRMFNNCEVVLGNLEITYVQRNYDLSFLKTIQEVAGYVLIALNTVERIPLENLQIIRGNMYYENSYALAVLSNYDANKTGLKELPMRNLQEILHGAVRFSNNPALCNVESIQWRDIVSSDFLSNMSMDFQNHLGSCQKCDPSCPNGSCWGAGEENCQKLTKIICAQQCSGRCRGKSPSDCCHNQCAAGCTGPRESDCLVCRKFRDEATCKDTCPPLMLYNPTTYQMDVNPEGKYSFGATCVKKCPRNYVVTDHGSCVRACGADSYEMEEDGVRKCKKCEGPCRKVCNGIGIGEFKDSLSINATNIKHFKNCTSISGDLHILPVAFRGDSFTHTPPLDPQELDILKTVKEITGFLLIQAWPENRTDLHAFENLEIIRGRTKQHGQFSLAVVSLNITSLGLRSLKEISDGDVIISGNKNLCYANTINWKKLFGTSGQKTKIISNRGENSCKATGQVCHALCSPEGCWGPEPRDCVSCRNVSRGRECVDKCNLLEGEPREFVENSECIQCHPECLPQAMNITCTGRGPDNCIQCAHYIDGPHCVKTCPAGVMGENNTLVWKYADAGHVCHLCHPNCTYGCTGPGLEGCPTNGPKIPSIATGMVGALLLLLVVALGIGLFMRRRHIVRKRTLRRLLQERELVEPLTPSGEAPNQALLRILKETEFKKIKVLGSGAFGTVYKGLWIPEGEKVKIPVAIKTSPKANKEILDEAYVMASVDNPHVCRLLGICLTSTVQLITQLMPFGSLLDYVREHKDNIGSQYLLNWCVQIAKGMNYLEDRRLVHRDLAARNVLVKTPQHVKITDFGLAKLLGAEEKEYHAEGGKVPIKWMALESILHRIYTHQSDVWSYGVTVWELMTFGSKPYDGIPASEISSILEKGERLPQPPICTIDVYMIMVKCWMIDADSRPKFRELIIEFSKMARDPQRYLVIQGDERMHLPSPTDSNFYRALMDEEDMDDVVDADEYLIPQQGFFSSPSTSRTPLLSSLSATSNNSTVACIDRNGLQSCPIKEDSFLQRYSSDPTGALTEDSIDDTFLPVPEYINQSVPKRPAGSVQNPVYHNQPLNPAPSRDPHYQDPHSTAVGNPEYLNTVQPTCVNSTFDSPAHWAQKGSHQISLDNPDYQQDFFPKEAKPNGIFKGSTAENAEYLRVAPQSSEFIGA
The next assay addresses EGFR wildtype (WT) (Homo sapiens, UniProt P00533). Put plainly: Biochemical EGFR kinase assay (Lance Ultra TR-FRET), wildtype. The method in brief: as §1
The mark [1] stands for this setting: IC50 L858R/C797S (nM) 100 μM ATP, 100 μM ATP.
The mark [2] stands for this setting: IC50 L858R/T790M/C797S (nM) 100 μM ATP, 100 μM ATP.
[3] abbreviates: IC50 del19/T790M/C797S (nM) 100 μM ATP, 100 μM ATP.
Where [4] appears, read: IC50 del19/C797S (nM) 100 μM ATP, 100 μM ATP.
Where [5] appears, read: IC50 WT (nM) 100 μM ATP, 100 μM ATP.
Where [6] appears, read: Km ATP, read-out: IC50 L858R/C797S (nM) Km ATP.
Setting [7] is: Km ATP, read-out: IC50 L858R/T790M/C797S (nM) Km ATP.
Where [8] appears, read: Km ATP, read-out: IC50 del19/T790M/C797S (nM) Km ATP.
Setting [9] is: Km ATP, read-out: IC50 del19/C797S (nM) Km ATP.
Setting [10] is: Km ATP, read-out: IC50 WT (nM) Km ATP.

EGFR L858R/T790M/C797S, sequence (P00533 25-1210 T790M/C797S/L858R): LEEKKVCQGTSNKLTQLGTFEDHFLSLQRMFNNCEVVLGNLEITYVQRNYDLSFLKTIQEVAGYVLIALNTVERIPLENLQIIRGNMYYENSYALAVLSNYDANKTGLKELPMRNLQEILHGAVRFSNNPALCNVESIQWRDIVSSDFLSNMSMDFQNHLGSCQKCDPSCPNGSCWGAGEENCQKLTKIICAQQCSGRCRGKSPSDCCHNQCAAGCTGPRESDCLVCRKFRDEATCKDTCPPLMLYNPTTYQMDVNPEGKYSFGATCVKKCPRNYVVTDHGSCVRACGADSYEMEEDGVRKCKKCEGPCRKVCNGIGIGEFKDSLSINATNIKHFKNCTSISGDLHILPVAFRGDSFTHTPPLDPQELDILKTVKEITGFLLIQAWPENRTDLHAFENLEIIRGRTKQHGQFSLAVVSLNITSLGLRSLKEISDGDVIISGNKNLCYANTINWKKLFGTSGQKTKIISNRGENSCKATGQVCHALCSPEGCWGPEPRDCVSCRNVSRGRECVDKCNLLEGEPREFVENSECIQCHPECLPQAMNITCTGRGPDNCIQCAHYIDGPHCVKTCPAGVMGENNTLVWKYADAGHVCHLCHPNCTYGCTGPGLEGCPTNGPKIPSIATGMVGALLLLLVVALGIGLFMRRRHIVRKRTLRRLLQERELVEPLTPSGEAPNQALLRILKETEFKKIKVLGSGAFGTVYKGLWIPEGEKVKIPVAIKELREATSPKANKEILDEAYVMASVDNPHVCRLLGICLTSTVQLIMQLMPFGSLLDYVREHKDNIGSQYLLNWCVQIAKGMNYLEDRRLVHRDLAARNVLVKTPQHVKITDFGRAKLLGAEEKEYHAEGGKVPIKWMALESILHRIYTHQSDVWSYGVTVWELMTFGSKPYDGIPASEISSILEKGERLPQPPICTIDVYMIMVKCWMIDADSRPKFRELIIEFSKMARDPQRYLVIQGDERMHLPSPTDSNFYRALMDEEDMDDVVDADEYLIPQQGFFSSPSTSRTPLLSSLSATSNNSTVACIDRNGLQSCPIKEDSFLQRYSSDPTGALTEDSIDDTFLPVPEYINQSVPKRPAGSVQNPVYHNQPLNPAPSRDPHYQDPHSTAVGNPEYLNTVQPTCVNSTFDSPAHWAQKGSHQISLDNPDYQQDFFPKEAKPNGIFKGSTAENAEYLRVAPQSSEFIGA
EGFR wildtype (WT), sequence (P00533 25-1210): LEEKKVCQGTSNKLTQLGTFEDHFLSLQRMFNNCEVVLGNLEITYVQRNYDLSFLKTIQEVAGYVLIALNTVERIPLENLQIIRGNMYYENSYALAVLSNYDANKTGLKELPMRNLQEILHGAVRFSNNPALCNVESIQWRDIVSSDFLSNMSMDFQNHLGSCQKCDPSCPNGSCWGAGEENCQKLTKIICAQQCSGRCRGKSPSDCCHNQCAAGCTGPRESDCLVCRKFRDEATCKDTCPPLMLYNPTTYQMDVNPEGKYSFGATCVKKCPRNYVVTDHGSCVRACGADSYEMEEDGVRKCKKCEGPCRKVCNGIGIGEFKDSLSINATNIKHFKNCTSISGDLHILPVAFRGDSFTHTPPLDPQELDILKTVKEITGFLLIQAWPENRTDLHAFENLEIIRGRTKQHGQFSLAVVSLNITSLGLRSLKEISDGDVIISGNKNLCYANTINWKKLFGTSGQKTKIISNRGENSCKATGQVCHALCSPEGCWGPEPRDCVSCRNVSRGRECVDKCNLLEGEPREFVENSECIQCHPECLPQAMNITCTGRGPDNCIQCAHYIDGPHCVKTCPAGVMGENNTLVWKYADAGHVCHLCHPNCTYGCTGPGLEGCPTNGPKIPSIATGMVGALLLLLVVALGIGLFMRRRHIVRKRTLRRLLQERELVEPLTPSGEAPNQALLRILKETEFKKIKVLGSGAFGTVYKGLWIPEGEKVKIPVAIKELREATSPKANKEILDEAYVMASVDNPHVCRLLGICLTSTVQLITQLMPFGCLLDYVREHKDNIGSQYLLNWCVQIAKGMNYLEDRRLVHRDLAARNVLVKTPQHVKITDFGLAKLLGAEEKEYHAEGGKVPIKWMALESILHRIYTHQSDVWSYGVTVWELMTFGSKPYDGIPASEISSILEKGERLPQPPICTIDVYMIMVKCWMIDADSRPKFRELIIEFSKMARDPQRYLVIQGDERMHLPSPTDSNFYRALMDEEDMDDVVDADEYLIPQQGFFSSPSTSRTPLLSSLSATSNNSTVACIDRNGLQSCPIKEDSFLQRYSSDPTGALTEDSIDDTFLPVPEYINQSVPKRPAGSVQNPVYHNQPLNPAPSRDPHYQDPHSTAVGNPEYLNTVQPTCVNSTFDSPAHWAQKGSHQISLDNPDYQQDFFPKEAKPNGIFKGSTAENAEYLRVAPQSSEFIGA

With `CC(C)(O)c1nc(-c2cnc(Nc3ccnc(-c4cnn(S(=O)(=O)C5CC5)c4)n3)cc2N[C@H]2CCC[C@H](O)C2)cs1` [Example 91, (1S,3S)-3-((2-((2-(1-(Cyclopropylsulfonyl)-1H-pyrazol-4-yl)pyrimidin-4-yl)amino)-5-(2-(2-hydroxypropan-2-yl)thiazol-4-yl)pyridin-4-yl)amino) cyclohexan-1-ol], the IC50 at EGFR L858R/C797S (setting [1]) is 8.7 nM; at EGFR L858R/T790M/C797S (setting [2]), 2.3 nM; at EGFR del19/T790M/C797S (setting [3]), 1 nM; against EGFR del19/C797S (setting [4]) it was 0.8 nM; at EGFR wildtype (WT) (setting [5]) it was more than 10000 nM.
With `Cn1cc(-c2nccc(Nc3cc(N[C@H]4CC[C@@](C)(O)CC4)c(-c4ccn(C(F)F)n4)cn3)n2)cn1` [Example 139, (1s,4s)-4-((5-(1-(Difluoromethyl)-1H-pyrazol-3-yl)-2-((2-(1-methyl-1H-pyrazol-4-yl)pyrimidin-4-yl)amino)pyridin-4-yl)amino)-1-methylcyclohexan-1-ol], the IC50 was 165 nM against EGFR L858R/C797S (setting [1]); 57.1 nM on EGFR L858R/C797S (setting [6]); 5.2 nM against EGFR L858R/T790M/C797S (setting [2]); 0.8 nM at EGFR L858R/T790M/C797S (setting [7]); 1.1 nM against EGFR del19/T790M/C797S (setting [3]); 1.7 nM at EGFR del19/T790M/C797S (setting [8]). Further, the IC50 against EGFR del19/C797S (setting [4]) is 99.1 nM; on EGFR del19/C797S (setting [9]), 50.2 nM; against EGFR wildtype (WT) (setting [5]) it was more than 10000 nM; at EGFR wildtype (WT) (setting [10]), 61 nM.
As for `O=S(=O)(C1CC1)n1cc(-c2nccc(Nc3cc(NC4CCCCC4O)c(-c4ccn(C(F)F)n4)cn3)n2)cn1` (centres unmarked) [Example 28, 2-((2-((2-(1-(Cyclopropylsulfonyl)-1H-pyrazol-4-yl)pyrimidin-4-yl)amino)-5-(1-(difluoromethyl)-1H-pyrazol-3-yl)pyridin-4-yl)amino)cyclohexan-1-ol], the IC50 on EGFR L858R/C797S (setting [1]) amounted to 598 nM; at EGFR L858R/C797S (setting [6]), 21.8 nM; against EGFR L858R/T790M/C797S (setting [2]), 5.5 nM; at EGFR L858R/T790M/C797S (setting [7]), 0.8 nM; on EGFR del19/T790M/C797S (setting [3]), 1.1 nM; on EGFR del19/T790M/C797S (setting [8]), 0.9 nM. The IC50 on EGFR del19/C797S (setting [4]) is 62.7 nM; on EGFR del19/C797S (setting [9]) it was 95.7 nM; against EGFR wildtype (WT) (setting [5]), more than 10000 nM; at EGFR wildtype (WT) (setting [10]), 241 nM.
Regarding `Cn1nc(-c2cnc(Nc3ccnc(-c4cnn(S(=O)(=O)C5CC5)c4)n3)cc2N[C@H]2CC[C@@H](F)CC2)cc1C(F)(F)F` [Example 175, N^2-(2-(1-(Cyclopropylsulfonyl)-1H-pyrazol-4-yl)pyrimidin-4-yl)-N^4-((1s,4s)-4-fluorocyclohexyl)-5-(1-methyl-5-(trifluoromethyl)-1H-pyrazol-3-yl)pyridine-2,4-diamine], the IC50 is 8 nM on EGFR L858R/C797S (setting [6]); 14.5 nM on EGFR L858R/T790M/C797S (setting [7]); 25.3 nM at EGFR del19/T790M/C797S (setting [8]); 41.8 nM at EGFR del19/C797S (setting [9]); 91.9 nM at EGFR wildtype (WT) (setting [10]).
Take `O=S(=O)(C1CC1)n1cc(-c2nccc(Nc3cc(N[C@H]4CC[C@@H](O)CC4)c(-c4cnn(C(F)F)c4)cn3)n2)cn1` [Example 77, (1s,4s)-4-((2-((2-(1-(Cyclopropylsulfonyl)-1H-pyrazol-4-yl)pyrimidin-4-yl)amino)-5-(1-(difluoromethyl)-1H-pyrazol-4-yl)pyridin-4-yl)amino)cyclohexan-1-ol]: the IC50 was 479 nM on EGFR L858R/C797S (setting [1]); 11.4 nM against EGFR L858R/T790M/C797S (setting [2]); 8.8 nM against EGFR del19/T790M/C797S (setting [3]); 80.8 nM at EGFR del19/C797S (setting [4]); more than 10000 nM against EGFR wildtype (WT) (setting [5]).
Turning to `CN(C)CC[C@H]1CC[C@@H](Nc2cc(Nc3ccnc(-c4cnn(S(=O)(=O)C5CC5)c4)n3)ncc2-c2ccn(C)n2)CC1` [Example 240, N^2-(2-(1-(Cyclopropylsulfonyl)-1H-pyrazol-4-yl)pyrimidin-4-yl)-N^4-((1s,4s)-4-(2-(dimethylamino)ethyl)cyclohexyl)-5-(1-methyl-1H-pyrazol-3-yl)pyridine-2,4-diamine], the IC50 at EGFR L858R/C797S (setting [6]) amounted to 0.04 nM; on EGFR L858R/T790M/C797S (setting [7]), 0.1 nM; at EGFR del19/T790M/C797S (setting [8]) it was 0.4 nM; at EGFR del19/C797S (setting [9]), 0.2 nM; on EGFR wildtype (WT) (setting [10]) it was 0.2 nM.
Regarding `O=S(=O)(C1CC1)n1cc(-c2nccc(Nc3cc(NC4CCN(CC(F)F)CC4)c(-c4ccn(C(F)F)n4)cn3)n2)cn1` [Example 219, N^2-(2-(1-(Cyclopropylsulfonyl)-1H-pyrazol-4-yl)pyrimidin-4-yl)-N^4-(1-(2,2-difluoroethyl)piperidin-4-yl)-5-(1-(difluoromethyl)-1H-pyrazol-3-yl)pyridine-2,4-diamine], the IC50 at EGFR L858R/C797S (setting [6]) is 21.4 nM; at EGFR L858R/T790M/C797S (setting [7]), 0.5 nM; on EGFR del19/T790M/C797S (setting [8]), 0.8 nM; on EGFR del19/C797S (setting [9]), 134 nM; at EGFR wildtype (WT) (setting [10]), 8630 nM.
On to `COc1ccc(-c2nccc(Nc3cc(N[C@H]4CC[C@@](C)(O)CC4)c(-c4ccn(C(F)F)n4)cn3)n2)cn1` [Example 165, (1s,4s)-4-((5-(1-(Difluoromethyl)-1H-pyrazol-3-yl)-2-((2-(6-methoxypyridin-3-yl)pyrimidin-4-yl)amino)pyridin-4-yl)amino)-1-methylcyclohexan-1-ol], for which the IC50 on EGFR L858R/C797S (setting [6]) turned out to be 884 nM; at EGFR L858R/T790M/C797S (setting [7]) it was 2.3 nM; on EGFR del19/T790M/C797S (setting [8]), 3 nM; on EGFR del19/C797S (setting [9]) it was 1260 nM; on EGFR wildtype (WT) (setting [10]) it was 6830 nM.
Turning to `CN(C)S(=O)(=O)n1cc(-c2nccc(Nc3cc(N[C@H]4CC[C@@](C)(O)CC4)c(-c4cc(C(F)(F)F)n(C)n4)cn3)n2)cn1` [Example 330, 4-(4-((4-(((1s,4s)-4-Hydroxy-4-methylcyclohexyl)amino)-5-(1-methyl-5-(trifluoromethyl)-1H-pyrazol-3-yl)pyridin-2-yl)amino)pyrimidin-2-yl)-N,N-dimethyl-1H-pyrazole-1-sulfonamide], the IC50 at EGFR L858R/C797S (setting [1]) came out at 63.3 nM; at EGFR L858R/C797S (setting [6]), 1.6 nM; on EGFR L858R/T790M/C797S (setting [2]), 3.9 nM; on EGFR L858R/T790M/C797S (setting [7]), 1.1 nM; on EGFR del19/T790M/C797S (setting [3]), 2.2 nM; on EGFR del19/T790M/C797S (setting [8]) it was 2.6 nM. Moreover, the IC50 at EGFR del19/C797S (setting [4]) is 35.1 nM; on EGFR del19/C797S (setting [9]) it was 15.7 nM; against EGFR wildtype (WT) (setting [5]) it was more than 10000 nM; on EGFR wildtype (WT) (setting [10]), 65.3 nM.
For the compound `C[C@]1(CO)C[C@@H](Nc2cc(Nc3ccnc(-c4cnn(S(=O)(=O)C5CC5)c4)n3)ncc2-c2ccn(C(F)F)n2)C1` [Example 378, ((1s,3s)-3-((2-((2-(1-(Cyclopropylsulfonyl)-1H-pyrazol-4-yl)pyrimidin-4-yl)amino)-5-(1-(difluoromethyl)-1H-pyrazol-3-yl)pyridin-4-yl)amino)-1-methylcyclobutyl)methanol], the IC50 on EGFR L858R/C797S (IC50 L858R/C797S, 100 μM ATP) worked out at 518 nM; at EGFR L858R/C797S (Km ATP, read-out: IC50 L858R/C797S, Km ATP) it was 14.4 nM; at EGFR L858R/T790M/C797S (IC50 L858R/T790M/C797S, 100 μM ATP), 3.1 nM; at EGFR L858R/T790M/C797S (Km ATP, read-out: IC50 L858R/T790M/C797S, Km ATP), 0.3 nM; on EGFR del19/T790M/C797S (IC50 del19/T790M/C797S, 100 μM ATP), 1.7 nM; on EGFR del19/T790M/C797S (Km ATP, read-out: IC50 del19/T790M/C797S, Km ATP), 1.2 nM. Further, the IC50 is 23.9 nM on EGFR del19/C797S (IC50 del19/C797S, 100 μM ATP); 16.7 nM at EGFR del19/C797S (Km ATP, read-out: IC50 del19/C797S, Km ATP); more than 10000 nM against EGFR wildtype (WT) (IC50 WT, 100 μM ATP); 254 nM on EGFR wildtype (WT) (Km ATP, read-out: IC50 WT, Km ATP).
For `Cn1nc(-c2cnc(Nc3ccnc(-c4cnn(S(=O)(=O)C5CC5)c4)n3)cc2N[C@H]2CC[C@@H](CCO)CC2)cc1C(F)(F)F` [Example 262, 2-((1s,4s)-4-((2-((2-(1-(Cyclopropylsulfonyl)-1H-pyrazol-4-yl)pyrimidin-4-yl)amino)-5-(1-methyl-5-(trifluoromethyl)-1H-pyrazol-3-yl)pyridin-4-yl)amino)cyclohexyl)ethan-1-ol], the IC50 against EGFR L858R/C797S (setting [1]) came to 5.3 nM; on EGFR L858R/C797S (setting [6]) it was 5.7 nM; against EGFR L858R/T790M/C797S (setting [2]), 7.3 nM; at EGFR L858R/T790M/C797S (setting [7]), 2.1 nM; on EGFR del19/T790M/C797S (setting [3]), 6.6 nM; on EGFR del19/T790M/C797S (setting [8]), 0.1 nM. Moreover, the IC50 was 33.4 nM on EGFR del19/C797S (setting [4]), 4.5 nM at EGFR del19/C797S (setting [9]), 1880 nM at EGFR wildtype (WT) (setting [5]) and 8.4 nM at EGFR wildtype (WT) (setting [10]).
